The values below are quoted from earlier work in patent US20250074868A1, “POLYHYDROXYLATED PHOTOINITIATORS” (Arkema France, priority 2021, published 2025).

As for `CC(C)(O)C(=O)c1ccc(OCCO)cc1` [SpeedCure 2959], the water solubility was 0.5 wt %.
